Results from patent US10898504B2, “Substituted nucleoside analogues for use as PRMT5 inhibitors” (Janssen Pharmaceutica NV, priority 2016, dated 2021).
Several values for one entry are separate records, joined by “and”; a condition that tells them apart may be missing. Identical values can stand only once.

Tests used:
PRMT5-MEP50 enzyme = biological target: T1, PRMT5-MEP50 enzyme (Homo sapiens, UniProt O14744); experiment: In vitro assay (Assay 1): PRMT5-MEP50 high throughput mass spectrometer assay, inhibition of SAH formation; format: biochemical; details: individual measurements shown, read-out: pIC50 Assay 1 (converted)
T1 construct: One virus expresses full length human PRMT5 with Flag-tag at N-terminus
T1 sequence (O14744 whole entry): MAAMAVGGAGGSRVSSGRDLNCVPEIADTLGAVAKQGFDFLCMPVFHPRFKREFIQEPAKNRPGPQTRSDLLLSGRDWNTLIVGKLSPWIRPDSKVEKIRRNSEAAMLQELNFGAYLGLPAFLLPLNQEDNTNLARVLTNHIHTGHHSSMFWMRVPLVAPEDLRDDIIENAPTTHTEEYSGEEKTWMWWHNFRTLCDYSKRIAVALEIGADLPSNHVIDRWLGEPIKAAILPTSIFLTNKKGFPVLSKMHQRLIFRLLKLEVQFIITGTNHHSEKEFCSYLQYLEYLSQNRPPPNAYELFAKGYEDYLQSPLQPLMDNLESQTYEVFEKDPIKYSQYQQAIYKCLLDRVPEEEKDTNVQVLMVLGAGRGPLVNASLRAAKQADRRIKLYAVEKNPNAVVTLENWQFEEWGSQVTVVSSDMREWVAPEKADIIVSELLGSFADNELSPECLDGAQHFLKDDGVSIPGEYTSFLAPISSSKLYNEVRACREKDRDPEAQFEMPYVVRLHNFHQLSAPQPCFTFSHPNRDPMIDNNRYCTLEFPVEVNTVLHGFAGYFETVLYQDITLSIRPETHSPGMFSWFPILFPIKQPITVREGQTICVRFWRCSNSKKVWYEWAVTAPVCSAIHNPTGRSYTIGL
T1 sequence (Q9BQA1 whole entry partner): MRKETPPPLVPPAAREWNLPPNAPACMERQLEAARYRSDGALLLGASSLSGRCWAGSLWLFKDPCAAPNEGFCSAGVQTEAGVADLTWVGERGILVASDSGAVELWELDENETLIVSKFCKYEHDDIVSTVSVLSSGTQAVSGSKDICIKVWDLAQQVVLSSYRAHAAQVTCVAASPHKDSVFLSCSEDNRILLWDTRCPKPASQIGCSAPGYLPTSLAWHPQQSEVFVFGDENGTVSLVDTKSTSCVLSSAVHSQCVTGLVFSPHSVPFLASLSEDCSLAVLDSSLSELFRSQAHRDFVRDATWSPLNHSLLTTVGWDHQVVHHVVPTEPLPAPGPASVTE
In short: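 Flag-PRMT5/His-MEP50 full-length human complex (Sf9-expressed), 10 nM, with 1 μM SAM and 0.3 μM histone H2A in 20 mM Tris-HCl pH 8.5, 50 mM NaCl, 5 mM MgCl2, 1 mM DTT; 60 min at 30 °C, quenched with 1% formic acid. SAH quantified by RapidFire MS; IC50 from 11-point 1:2 series fitted to four-parameter Hill equation.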

A549 cells = experiment: PD assay (Assay 2): inhibition of nuclear symmetric Arginine dimethylation (SYM10 immunohistochemistry) in A549 cells; format: cell-based; details: individual measurements shown; for IC50: Homo sapiens, A549, PD assay in A549 cells, read-out: pIC50 Assay 2 (converted); for pIC50 Assay 2: PD assay in A549 cells
In short: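 A549 cells dosed with a nine-point series (0.2% DMSO) for 48 h at 37° C, then fixed and immunostained with SYM10 anti-symmetric-dimethylarginine antibody, plus Hoechst and CellMask counterstains for high-content imaging. Nuclear signal normalized between DMSO and 10 μM reference-compound controls to derive IC50/pIC50.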

PRMT5 = PRMT5 (Homo sapiens, UniProt O14744); details: Chan-Penebre et al., Nat Chem Biol 2015; cited from earlier work
PRMT5, sequence (O14744 whole entry, species assumed): as the sequence (O14744 whole entry) above
PRMT5, sequence (Q9BQA1 whole entry partner, species assumed): as the sequence (Q9BQA1 whole entry partner) above

MCL xenograft models = details: multiple MCL xenograft models; Chan-Penebre et al., Nat Chem Biol 2015; cited from earlier work

SMILES	IC50 (PRMT5-MEP50 enzyme)	IC50 (A549 cells) [nM]	pIC50 Assay 2 (A549 cells)	potency as PRMT5 inhibitor (PRMT5)	anti-tumour activity (MCL xenograft models)
CN1CCC2(CCCN(C[C@H]3O[C@@H](n4ccc5c(N)ncnc54)[C@H](O)[C@@H]3O)C2)C1 (stereo partly shown) [Compound 186]	13.5 nM	617			
CN1CCC2(CCCN2CC2C[C@@H](n3ccc4c(N)ncnc43)[C@H](O)[C@@H]2O)CC1 (stereo partly shown) [Compound 125]	148 nM	~871			
CC(C)CCN1CCC2(CC1)CC(F)(F)CN2C[C@H]1O[C@@H](n2ccc3c(N)ncnc32)[C@H](O)[C@@H]1O [Compound 184]	67.6 nM	~1480			
NCC[C@@H]1COCCN1C[C@H]1O[C@@H](c2ccc3c(N)ncnn23)[C@H](O)[C@@H]1O [Compound 134]	200 nM	8910			
CC(C)C(=O)O[C@@H]1[C@H](OC(=O)C(C)C)[C@@H](CN2CC(F)(F)CC23CCNCC3)O[C@H]1c1ccc2c(N)ncnn12 [Compound 107]	> 10000 nM	126			
CN1CCC2(CC1)CC(F)(F)CN2C[C@H]1O[C@@H](n2ccc3c(Cl)ncnc32)[C@H](O)[C@@H]1O [Compound 188]	372 nM	708			
NCCC1CCN(C[C@H]2O[C@@H](n3ccc4c(N)ncnc43)[C@H](O)[C@@H]2O)C1 (stereo partly shown) [Compound 55]	309 nM	6170			
CN1CCC2(CC1)CC(F)(F)CN2CC1C[C@@H](n2ccc3c(N)ncnc32)[C@H](O)[C@@H]1O (stereo partly shown) [Compound 123]	22.4 nM	162			
CC(C)C(=O)O[C@@H]1[C@@H](CN2CC(F)(F)CC23CCN(C)CC3)C[C@@H](n2ccc3c(N)ncnc32)[C@@H]1OC(=O)C(C)C [Compound 106]	> 10000 nM	19500			
Nc1ncnc2c1ccn2[C@@H]1O[C@H](CN2CCC3(CNCCC3(F)F)C2)[C@@H](O)[C@H]1O (stereo partly shown) [Compound 38]	1620 nM	3890			
Nc1ncnc2c1ccn2[C@@H]1O[C@H](CN2CCC(N)C2)[C@@H](O)[C@H]1O (stereo partly shown) [Compound 54]	1550 nM	> 10000			
Nc1ncnc2c1ccn2[C@@H]1O[C@H](CN2CCCC23CCN(Cc2cccnc2)CC3)[C@@H](O)[C@H]1O [Compound 172]	309 nM	~912			
Cc1nc(CN2CCC3(CCCN3C[C@H]3O[C@@H](n4ccc5c(N)ncnc54)[C@H](O)[C@@H]3O)CC2)cs1 [Compound 176]	1120 nM	6030			
CN1CCC2(CCCN2C[C@H]2O[C@@H](n3ccc4c(N)nc(Cl)nc43)[C@H](O)[C@@H]2O)CC1 [Compound 65]	56.2 nM	955			
NCC[C@@H]1CC(F)(F)CN1C[C@H]1O[C@@H](c2ccc3c(N)ncnn23)[C@H](O)[C@@H]1O [Compound 156]	26.3 nM	1050			
CN1CCC2(CC1)CCN(C[C@H]1O[C@@H](n3cnc4c(N)ncnc43)[C@H](O)[C@@H]1O)C2 [Compound 16]	22400 nM	> 10000			
N#CCN1CCC2(CCCN2C[C@H]2O[C@@H](c3ccc4c(N)ncnn34)[C@H](O)[C@@H]2O)CC1 [Compound 140]	295 nM	~3020			

SMILES	IC50 (PRMT5-MEP50 enzyme)	IC50 (A549 cells) [nM]	pIC50 Assay 2 (A549 cells)	potency as PRMT5 inhibitor (PRMT5)	anti-tumour activity (MCL xenograft models)
NCC[C@H]1CCCN1C[C@H]1O[C@@H](n2cnc3c(N)ncnc32)[C@H](O)[C@@H]1O [Compound 58]	724 nM	~6920			
CCNc1ncnc2c1ccn2[C@@H]1O[C@H](CN2CCCC23CCN(C)CC3)[C@@H](O)[C@H]1O [Compound 205]	1620 nM	7080			
Nc1ncnn2c([C@@H]3O[C@H](CN4CC(F)(F)CC45CCNCC5)[C@@H](O)[C@H]3O)ccc12 [Compound 136]	50.1 nM	~263			
CN1CCC2(CCCN2C[C@H]2O[C@@H](c3ccc4c(N)ncnn34)[C@H](O)[C@@H]2O)CC1 [Compound 135]	617 nM	~1050			
CN1CCC2(CCCN2C[C@H]2O[C@@H](n3ccc4c(N)ncnc43)[C@H](O)[C@@H]2O)CC1 [Compound 168]	26.3 nM and 17.4 nM and 8.51 nM	204	~6.64 and ~6.7		
NCC[C@@H]1CCCN1C[C@H]1CN(C2C=Cc3c(N)ncnc32)[C@H](O)[C@@H]1O (stereo partly shown) [Compound 127]	61.7 nM	~2750			
CN1CCC2(CCCN2C[C@H]2O[C@@H](n3cc(F)c4c(N)ncnc43)[C@H](O)[C@@H]2O)CC1 [Compound 178]	51.3 nM	120			
Nc1ncnn2c([C@@H]3O[C@H](CN4CC(F)(F)CC45CCN(CCc4ccc(F)cc4)CC5)[C@@H](O)[C@H]3O)ccc12 [Compound 143]	7240 nM	1580			
O=C(NC[C@H](O)CN1CCc2ccccc2C1)c1cc(NC2COC2)ncn1 [EPZ015666]				sub-nanomolar potent	anti-tumour activity
Nc1ncnc2c1ccn2[C@@H]1O[C@H](CN2CCCC3(CCCCN3)C2)[C@@H](O)[C@H]1O (single isomer, unassigned) [Compound 36]	1910 nM		~5.13		
Nc1ncnc2c1ncn2[C@@H]1O[C@H](CN2CCCC3(CNC3)C2)[C@@H](O)[C@H]1O [Compound 82]	126 nM	2340			
CN1CC2(C1)CN(C[C@H]1O[C@@H](n3ccc4c(N)ncnc43)[C@H](O)[C@@H]1O)CCO2 [Compound 92]	126 nM	~1380			
Nc1ncnc2c1ccn2[C@@H]1O[C@H](CN2CCCC3(CNC3)C2)[C@@H](O)[C@H]1O [Compound 45]	83.2 nM	~741			
Nc1ncnc2c1ccn2[C@@H]1O[C@H](CN2CCOCC23CCNC3)[C@@H](O)[C@H]1O (single isomer, unassigned) [Compound 111]	174 nM		~5.26		
Nc1ncnn2c([C@@H]3O[C@H](CN4CCC45CCNCC5)[C@@H](O)[C@H]3O)ccc12 [Compound 165]	871 nM	> 10000			
Cc1nc(N)c2ccn([C@@H]3O[C@H](CN4CCCC45CCNCC5)[C@@H](O)[C@H]3O)c2n1 [Compound 28]	26.3 nM	1150			
